Legend:
Test in all cases: relative viability (nuclei count vs DMSO), 5 days (fraction); higher = more cells survive
4EGI-1 + Phenformin = compound: O=C(O)C(Cc1ccccc1[N+](=O)[O-])=NNc1nc(-c2ccc(Cl)c(Cl)c2)cs1 (mixture of isomers) [4EGI-1] + N=C(N)NC(=N)NCCc1ccccc1 [Phenformin] (partner 250 µM)
Outline: (§1)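 Each reported value is a median over duplicate plates. It expresses relative viability: treated-well nuclei count divided by vehicle-well nuclei count. Lung cancer cell lines in 1536-well plates were dosed by pin tool a day after seeding, alone with one drug or with a fixed anchor-drug dose plus five library-drug doses (not always all listed) in √10 steps, and nuclei were counted after 5 days.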

XMD8-85 + Bortezomib = compound: CN1CCN(CC1)C2=CC(=C(C=C2)NC3=NC=C4C(=N3)N(C5=CC=CC=C5C(=O)N4C)C)OC [XMD8-85] + CC(C)C[C@H](NC(=O)[C@H](Cc1ccccc1)NC(=O)c1cnccn1)B(O)O [Bortezomib] (partner 0.002 µM)
Outline: as §1

XMD8-85 + Pemetrexed = compound: CN1CCN(CC1)C2=CC(=C(C=C2)NC3=NC=C4C(=N3)N(C5=CC=CC=C5C(=O)N4C)C)OC [XMD8-85] + Nc1nc2[nH]cc(CCc3ccc(C(=O)N[C@@H](CCC(=O)O)C(=O)O)cc3)c2c(=O)[nH]1 [Pemetrexed] (partner 0.2 µM)
Outline: as §1

XMD8-85 + Navitoclax = compound: CN1CCN(CC1)C2=CC(=C(C=C2)NC3=NC=C4C(=N3)N(C5=CC=CC=C5C(=O)N4C)C)OC [XMD8-85] + CC1(C)CCC(c2ccc(Cl)cc2)=C(CN2CCN(c3ccc(C(=O)NS(=O)(=O)c4ccc(N[C@H](CCN5CCOCC5)CSc5ccccc5)c(S(=O)(=O)C(F)(F)F)c4)cc3)CC2)C1 [Navitoclax] (partner 0.5 µM)
Outline: as §1

Cell Line	relative viability (4EGI-1 + Phenformin; first compound 0.5 µM)	relative viability (4EGI-1 + Phenformin; first compound 1.581 µM)	relative viability (4EGI-1 + Phenformin; first compound 5 µM)	relative viability (4EGI-1 + Phenformin; first compound 15.81 µM)	relative viability (4EGI-1 + Phenformin; first compound 50 µM)	relative viability (XMD8-85 + Bortezomib; first compound 0.08 µM)	relative viability (XMD8-85 + Bortezomib; first compound 0.253 µM)	relative viability (XMD8-85 + Bortezomib; first compound 0.8 µM)	relative viability (XMD8-85 + Bortezomib; first compound 2.53 µM)	relative viability (XMD8-85 + Bortezomib; first compound 8 µM)	relative viability (XMD8-85 + Pemetrexed; first compound 0.08 µM)	relative viability (XMD8-85 + Pemetrexed; first compound 0.253 µM)	relative viability (XMD8-85 + Pemetrexed; first compound 0.8 µM)	relative viability (XMD8-85 + Pemetrexed; first compound 2.53 µM)	relative viability (XMD8-85 + Pemetrexed; first compound 8 µM)	relative viability (XMD8-85 + Navitoclax; first compound 0.08 µM)	relative viability (XMD8-85 + Navitoclax; first compound 0.253 µM)	relative viability (XMD8-85 + Navitoclax; first compound 0.8 µM)	relative viability (XMD8-85 + Navitoclax; first compound 2.53 µM)	relative viability (XMD8-85 + Navitoclax; first compound 8 µM)
HARA	0.593	0.506	0.497	0.41	0.376	1.08	1.01	1.26	1.16	0.866	0.26	0.227	0.307	0.295	0.229	1.17	1.15	1.13	1	0.443
A-427	0.331	0.316	0.326	0.274	0.156	1.04	1.05	0.948	1.18	0.893	1.09	1.02	1.08	1.1	0.754	0.993	0.995	1.03	1.03	0.95
NCI-H441	1.04	0.76	0.919	0.785	0.183	0.509	0.442	0.392	0.581	0.367	0.263	0.261	0.247	0.279	0.256	0.664	0.565	1.01	1.11	0.278
PC-3 [JPC-3]	0.484	0.486	0.476		0.431	0.701	0.824	0.736	0.968	0.732	1.21	0.928	1.1	1.27	0.452	0.796	0.785	0.861	0.966	0.769
NCI-H1915	0.367	0.35	0.374	0.343	0.233	0.67	0.923	0.942	0.986	0.945	0.434	0.523	0.484	0.5	0.457	0.859	0.817	0.791	0.771	0.622
HCC-44	0.184		0.192	0.118	0.137	0.938	0.911	0.816	0.962	0.679	0.65	0.701	0.647	0.597	0.632	1.03	1.03	1.05	0.796	0.434
NCI-H2228	0.314	0.313	0.379	0.298	0.141	1.15	0.872	0.924	1.04	0.582	0.334	0.319	0.343	0.398	0.237	0.893	0.929	0.619	0.81	0.353
LOU-NH91	0.742		0.703	0.456	0.534	0.448	0.466	0.488	0.489	0.4	0.281	0.333	0.311	0.295	0.378	0.69	0.764	0.639	0.7	0.546
NCI-H1666	0.537	0.554	0.563	0.51	0.398	0.831	0.754	0.745	0.735		0.862	0.811	0.83	0.82	0.673	0.932	1	0.865	0.729	0.727
EKVX	0.223	0.213	0.234	0.189	0.215	1.08	1.11	1.09	1.13	1	0.276	0.347	0.382		0.381	0.931	0.999	0.89	1.03	0.892
HOP-62	0.677	0.446	0.73	0.667	0.537	0.646	0.698	0.863	0.719	0.681	0.307	0.358	0.349	0.251	0.247	0.996	1.08	0.939	0.992	0.79
NCI-H1734	0.477	0.341	0.43	0.352	0.256	0.808	0.936	0.917	1.03	0.649		0.405	0.419	0.354	0.366	0.806	0.888	0.78	0.952	0.504
EMC-BAC-2	0.664	0.524	0.612	0.608	0.385	1.06	1.05	1.1	1.16	0.965	0.391	0.423	0.45	0.411	0.376	1.12	1.23	1.16	1.13	1.16
COR-L23	0.49	0.275	0.429	0.296	0.144	1.05	0.962	1.17	0.957	0.691	0.187	0.2	0.199	0.187	0.18	1.24	1.06	1.02	0.871	0.629
NCI-H460	0.549		0.593	0.243	0.0399	0.924	0.999	1.2	0.956	0.75	0.0608	0.0555	0.0635	0.0564	0.0781	1.07	1.21	1.14	1.22	0.415
HCC-366	0.676	0.569	0.741	0.631	0.443	0.91	0.815	1.08	1.1	1.09	0.147	0.163	0.146	0.129	0.168	1.12	1.06	1.27	1.06	0.63
NCI-H1755	0.699	0.636	0.646	0.625	0.397	0.97	1.14	0.918	1.06	0.806	0.405	0.441	0.444	0.427	0.444	1.03	1.04	0.953	0.984	0.838
NCI-H2087	0.498	0.468	0.435	0.394	0.193	0.827	0.869		1.11	0.729	0.654	0.697	0.692	0.731	0.659	1.06	1.01	1.17	1.05	0.772
NCI-H1650	0.456		0.401	0.284	0.206	0.26	0.197	0.192	0.173	0.179	0.376	0.384	0.384	0.306	0.294	1.15	1.32	1.29	1.16	0.439
CAL-12T	0.578	0.465	0.609	0.527	0.179	0.979	0.95	0.864	0.964	0.584	0.956	1.15		0.862	0.681	1.18	1.11	1.1	1.06	0.759
NCI-H1355	0.469	0.439	0.45	0.413	0.33	1.28	1.26	1.13	1.21	1.11	1.04	1.02	1.03	1.07	0.976	1.06	1.01	0.977	0.862	0.804
NCI-H2023	0.503		0.425	0.281	0.117	0.881	0.992	1.07	1.13	0.575	0.189	0.223	0.326	0.255	0.165	0.924	1.08	1.13	0.997	
PC-14	0.614		0.792	0.188	0.232	0.794	0.964	0.821	0.935	0.596	0.114	0.144	0.126	0.116	0.101	1.01	1.02	1.03	0.959	0.628
LXF-289	0.535	0.514	0.513	0.485	0.291	0.977	0.999	0.97	1.04	0.978	0.856	0.88	0.878	0.949	0.899	0.831	0.867	0.951	0.974	0.811
NCI-H2009	0.55	0.494	0.528	0.366	0.18	0.98	0.931	1.16	0.988	0.352	0.958	1.03	1.1	0.885	0.767	1.13	1.12	1.19	1.08	0.717
SK-LU-1	0.653	0.546	0.681	0.632	0.264	0.93	0.926		1.42	0.84	0.973	0.916	0.966	1.1	0.851	0.839	0.795	1.1	0.888	0.293
NCI-H23	0.884		0.763	0.826	0.706	0.977	0.836	1.09	1.21	0.853	0.546	0.677	0.607		0.4	0.878	1.22	0.686	0.657	0.544
